Laboratory results published in PMC12051620, “Molecular basis underlying the specificity of an antagonist AA92593 for mammalian melanopsins” (The Journal of Biological Chemistry, 2025).

Experiments:
Assay in all cases: GsX GloSensor assay with Gsα/q11
Format in all cases: cell-based, Branchiostoma lanceolatum
Details in all cases: 16.7 μM AA92593, COS-1 cells
[1] = tested on: lanceolatum melanopsin A269^6.52S mutant
Text: (§1) We assessed the effect of the antagonist on the mutants using the GsX GloSensor assay with Gsα/q11. […] Furthermore, the double substitution F189^ECL2W/I207^5.42F further increased the susceptibility of the lanceolatum melanopsin to the antagonist by ∼88% (Fig. 7, G, H, and I). The AA92593-induced inhibition of the double mutant F189^ECL2W/I207^5.42F was as efficient as that of human melanopsin (Fig. 7I). […] Taken together, the introduction of Trp-189^ECL2 and Phe-207^5.42 rendered lanceolatum melanopsin highly sensitive to the antagonist (Fig. 7, G, H, and I).
(§2) For GloSensor assay, opsins, GloSensor assay sensor (coded by pGlo-22F), and NanoBiT-tagged G proteins were transiently expressed in COS-1 cells (kindly provided from Dr David Farrens, Oregon Health and Science University) using PEI as described previously ([24], [52]). For the GsX GloSensor assay ([12], [13]), each well of a 96-well assay plate (Corning) was transfected with 50 ng opsin plasmid, 16.7 ng G protein plasmid, 50 ng pGlo-22F plasmid (Promega), and 500 ng PEI in 25 μl Opti-mem and 75 μl Dulbecco's modified Eagle's medium (D-MEM). For NanoBiT G protein dissociation assay, each well of a 96-well assay plate was transfected with 50 ng opsin plasmid, 5 ng Lg-BiT inserted Gqα (Gqα-LgBiT) plasmid, 25 ng Gβ1 plasmid, 25 ng Sm-BiT fused Gγ2 plasmid, 5 ng RIC8A plasmid, and 500 ng PEI in 25 μl Opti-mem and 75 μl D-MEM. For GFP-fluorescence microscopy, a 35-mm cell culture dish (IWAKI) was transfected with 2 μg melanopsin-GFP plasmid and 8 μg PEI in 400 μl Opti-mem and 1.2 ml D-MEM. […]
(§3) The transfected COS-1 cells were incubated at 37 °C, 5% CO2 for 2 days, and the medium was aspirated and exchanged with 50 μl of HBSS (145 mM NaCl, 10 mM D-glucose, 5 mM KCl, 1 mM MgCl2, 1.7 mM CaCl2, 1.5 mM NaHCO3, 10 mM Hepes, pH 7.4), containing 33.3, 20, 10, 2, 0.2, 0.02, 0.002, or 0 μM AA92593, 0.5% dimetyl sulfoxide (DMSO), and 4% (vol/vol) GloSensor cAMP reagent stock solution. […] Then, the cells were incubated at room temperature for 1 h, and luminescence changes were monitored. After incubation of the cells with AA92593, luminescence measurement was interrupted, the plate was ejected, and the cells were added with 50 μl of HBSS containing 0.2 μM 9-cis-retinal. […] Luminescence was measured using GM-2000 or GM-3510 microplate reader (Promega). Luminescence level of each well was measured every 30 s with integration time of 0.6 to 0.9 s. To illuminate opsins, luminescence measurement was interrupted, the plate was ejected, and the plate was illuminated by white light with CN-160 LED video light (light intensity, ∼9 mW/cm^2) (NEEWER). […] After illumination, luminescence measurement was resumed. The measured luminescence levels were normalized to the level at the starting point (time = 0 min). […]

[2] = tested on: lanceolatum melanopsin F189^ECL2W mutant
Text: as §1, §2, §3

[3] = tested on: lanceolatum melanopsin I207^5.42F mutant
Text: as §1, §2, §3

[4] = tested on: lanceolatum melanopsin I207^5.42L mutant
Text: as §1, §2, §3

COc1ccc(S(=O)(=O)N2CCCCC2)cc1C [AA92593]
change in sensitivity to AA92593 vs WT [1]: little changes | increase in sensitivity to AA92593 vs WT [2]: ~21% | increase in sensitivity to AA92593 vs WT [3]: ~42% | change in sensitivity to AA92593 vs WT [4]: little changes
